Reference: US9944596B2, “Heterocyclic compound” (TAKEDA PHARMACEUTICAL COMPANY LIMITED, priority 2014, dated 2018)

Key:
human RBP4 = target: T1, human RBP4 (Homo sapiens, UniProt P02753); assay: Binding assay by Retinol-RBP4-TTR ELISA; conditions: compound 10 μM; retinol 50 nM; His-tagged human RBP4, biotinylated human TTR; read-out: human RBP4 binding inhibitory activity (% at 10 μM)
T1 construct: the culture supernatant containing secreted hRBP4-His was recovered; made in house; host or cells: FreeStyle 293 expression system (Invitrogen)
Experimental: Using the Retinol-RBP4-TTR ELISA system shown below, the action of the compound of the present invention to inhibit the binding of RBP4 and retinol and TTR was evaluated.
1F: Binding Assay by Retinol-RBP4-TTR ELISA
This ELISA system detects a complex with RBP4 and TTR based on the retinol dependent binding of RBP4 to TTR.
The His-tagged human RBP4 used was prepared in the above-mentioned 1C.
The biotinylated human TTR used was prepared in the above-mentioned 1E.
Streptavidin (20 μl) (10 μg/ml Streptavidin type II (Wako Pure Chemical Industries, Ltd.), 10 mM Tris-HCl (pH 7.5), 10 mM NaCl) was added to a 384 well blackplate (Nunc MaxiSorp, Thermo Fisher Scientific Inc.), and the plate was centrifuged (1000 rpm, 1 min) and coated at 4° C. overnight. The plate was washed twice with PBST (PBS, 0.05% Tween 20, 100 μl/well), and blocked with 25% Block Ace (Snow Brand Milk Products Co., Ltd., PBS, 100 μl/well). The plate was subjected to centrifugation (1000 rpm, 1 min), and incubated at room temperature for 4 hr or 4° C. overnight. The plate was washed twice with PBST (PBS, 0.05% Tween 20, 100 μl/well), and biotinylated human TTR (stock solution concentration 1.0 mg/ml) diluted 750-fold with PBST was added at 20 μl/well. The plate was subjected to centrifugation (1000 rpm, 1 min), and further stood at room temperature for 1.5 hr or 4° C. overnight. The plate was washed 3 times with PBST (100 μl/well), and His-tagged human RBP4 (stock solution concentration 1.28 mg/ml) diluted 4000-fold with a reaction buffer (50 mM Tris-HCl, 150 mM NaCl, 0.005% Tween 20, 1 mM DTT, 0.1% BSA) was added at 10 μl/well. The dilution of the compound (200-fold concentration) was prepared with DMSO, and 1.6 μl each was added to a reaction buffer (320 μl) containing retinol (50 nM) (Sigma-Aldrich Co.). A reaction buffer (320 μl) containing retinol and added with DMSO was used as a positive control, and a reaction buffer (320 μl) not containing retinol and added with DMSO was used as a negative control. A mixed solution of retinol and the compound was added to the plate at 15 μl/well. The plate was stirred in a plate mixer, centrifuged (1000 rpm, 1 min), and reacted at room temperature for 2 hr. Anti-His HRP-conjugated antibody (QIAGEN) solution diluted with a reaction buffer was added […], centrifuged (1000 rpm, 1 min), and reacted at room temperature for 30 min. The plate was washed 3 times with PBST (100 μl/well), SuperSignal ELISA Femto Maximum Sensitivity Substrate reagent (PIERCE, Thermo Fisher Scientific Inc.) was added at 30 μl/well, and the luminescence was measured by a plate reader (Envision).
The binding inhibitory activity of the compound was determined by 100×(positive control value−test compound value)/(positive control value−negative control value).

RBP4 = target: T2, RBP4 (Mus musculus, UniProt Q00724); assay: Blood RBP4-lowering action in C57BL/6J mouse (plasma RBP4 by ELISA); format: in vivo; conditions: male C57BL/6J mice, mean±SD, n=4 or 5; for RBP4 (initial value/control value %) 8 hr later: plasma 8 hr after administration
T2 construct: from tissue; host or cells: plasma of male C57BL/6J mice (Japan Charles River)
Experimental: The blood RBP4-lowering action of the compound of the present invention was evaluated using C57BL/6J mouse.
Male 7- to 10-week-old C57BL/6J mice (Japan Charles River) were acclimation reared under free food ingestion conditions on CE-2 solid feed (CLEA Japan, Inc.) for 4 to 6 days, and randomly grouped (4 or 5 per group). On the day of the test, blood samples were collected from the tail vein, and plasma was separated (0 hr value). Thereafter, a test compound (Example 1, 4, 5, 6 or 7) was orally administered at a dose of 5 mg/kg (solvent: 0.5% methylcellulose solution (10 mL/kg)). At 8 hr after the compound was administered, blood samples were collected from the tail vein and plasma was separated. Immediately after the blood samples were collected, the test compound was orally administered again at a dose of 5 mg/kg, and blood samples were collected again at 24 hr after the initial administration. In Examples 2, 3 and 8, the initial administration alone was performed at a dose of 10 mg/kg. The daily dose of all the test compounds was set to 10 mg/kg. A 0.5% methylcellulose solution (10 mL/kg) was orally administered to the control group.
The amount of RBP4 in the collected plasma was measured by the ELISA method. Using rabbit anti-mouse RBP4 polyclonal antibody (Hokudo Co., Ltd.), RBP4 was quantified by the following process. A 96 well ELISA plate was coated with 50 μg/mL antibody (100 μL), and stood at 4° C. overnight or at room temperature for 2 hr. After blocking with BlockAce (Dainippon Pharmaceutical Co., Ltd.), 100 μL of mouse RBP4 or sample was added and the plate was stood at room temperature for 2 hr, washed with PBS-0.5% Tween20, added with HRP-labeled anti-RBP4 antibody (prepared by labeling RBP4 polyclonal antibody (Hokudo Co., Ltd.) with HRP (DOJINDO LABORATORIES)) (100 μL), and stood at room temperature for 1 hr. After washing, TMB (Sigma) was added at room temperature for 20 min to allow for color development. The reaction was quenched with 2N sulfuric acid and the absorbance at A450 nm was measured by a platereader. Variation from the initial value of each individual was taken as the relative value to the control group (initial value/control value, %) at each time point. The results are shown below in mean±standard deviation (n=4 or 5).

A2E = assay: Suppression of A2E accumulation in the eyeball of ABCA4 KO mouse (HPLC); format: in vivo; conditions: male ABCA4 KO mice, oral 5 mg/kg twice per day for 12 weeks, n=6
Experimental: The suppressive action for accumulation of retinoid metabolite bis-retinoid N-retinylidene-N-retinylethanolamine (A2E) in the eyeball, of the compound of the present invention, was evaluated using ATP-binding cassette A4 knockout (ABCA4 KO) mouse. A2E is the major constituent component of Lipofuscin in the eyeball, and is involved in the onset and pathology progression in atrophic age-related macular degeneration and Stargardt's disease. ABCA4 KO mouse was confirmed to show remarkable accumulation of A2E, Lipofuscin along with aging, and is known as an animal model of atrophic age-related macular degeneration and Stargardt's disease.
8-Week-old male ABCA4 KO mice were randomly grouped, and 0.5% methylcellulose solution was orally administered to the control group, and 0.5% methylcellulose suspension of a compound at a dose shown in the following Table was orally administered to the test compound group, each twice per day at 10 mL/kg. Each group contained 6 mice. After repetitive administration for 12 weeks, eyeball was isolated under anesthesia.
In the eyeball, A2E was measured by the HPLC method. A2E reference standard was synthesized from all-trans retinal, ethanolamine in acetic acid-added ethanol. […] Quantification was performed at ultraviolet absorbance at 440 nm by PDA.

[1] = oral 10 mg/kg initial administration alone
[2] = oral 10 mg/kg initial administration alone, plasma 24 hr after administration
[3] = oral 5 mg/kg at 0 hr and again at 8 hr (daily dose 10 mg/kg), plasma 24 hr after initial administration

Row | SMILES | inhibition at 10 µM (human RBP4) [%] | RBP4 (initial value/control value %) 8 hr later (RBP4; [1]) [%] | RBP4 (initial value/control value %) 24 hr later (RBP4; [2]) [%] | RBP4 (initial value/control value %) 24 hr later (RBP4; [3]) [%] | RBP4 (initial value/control value %) 8 hr later (RBP4; oral 5 mg/kg) [%] | A2E (% of control value) (A2E) [%]
1 | CC1(c2ccccc2OC[C@H]2CCN(C(=O)CC(=O)O)C2)CC1 [Example 2, 3-((3S)-3-((2-(1-methylcyclopropyl)phenoxy)methyl)pyrrolidin-1-yl)-3-oxopropanoic acid] | 98 | 11.82 ± 3.24 | 36.40 ± 12.19 |  |  | 
2 | O=C(O)CC(=O)N1CCC(COc2ccccc2C2CCCC2)C1 (stereo not drawn) [Example 7, 3-(3-((2-cyclopentylphenoxy)methyl)pyrrolidin-1-yl)-3-oxopropanoic acid] | 100 |  |  | 53.72 ± 6.97 | 33.90 ± 6.60 | 
3 | O=C(O)CC(=O)N1CC[C@@H](COc2ccccc2C2CCCC2)C1 [Example 6, 3-((3R)-3-((2-cyclopentylphenoxy)methyl)pyrrolidin-1-yl)-3-oxopropanoic acid] | 100 |  |  | 41.90 ± 20.25 | 41.42 ± 13.96 | 
4 | O=C(O)CC(=O)N1CC[C@H](COc2ccccc2C2(C(F)(F)F)CC2)C1 [Example 1, 3-oxo-3-((3S)-3-((2-(1-(trifluoromethyl)cyclopropyl)phenoxy)methyl)pyrrolidin-1-yl)propanoic acid] | 100 |  |  | 28.49 ± 5.16 | 30.02 ± 6.85 | 
5 | O=C(O)CC(=O)N1CC[C@H](COc2ccccc2C2CCC2)C1 [Example 3, 3-((3S)-3-((2-cyclobutylphenoxy)methyl)pyrrolidin-1-yl)-3-oxopropanoic acid] | 98 | 37.20 ± 3.71 | 95.57 ± 8.55 |  |  | 
6 | CCOC(=O)CC(=O)N1CC[C@H](COc2ccccc2C2(C(F)(F)F)CC2)C1 [Example 8, ethyl 3-oxo-3-((3S)-3-((2-(1-(trifluoromethyl)cyclopropyl)phenoxy)methyl)pyrrolidin-1-yl)propanoate] |  | 77.35 ± 7.08 | 92.76 ± 6.81 |  |  | 
7 | O=C(O)CC(=O)N1CC[C@H](COc2ccccc2C2CCCC2)C1 [Example 4, 3-((3S)-3-((2-cyclopentylphenoxy)methyl)pyrrolidin-1-yl)-3-oxopropanoic acid] | 100 |  |  | 56.02 ± 9.72 | 29.93 ± 6.80 | 53.94 ± 15.16
8 | O=C(O)CC(=O)N1CC[C@H](COc2ccccc2C2CCCCC2)C1 [Example 5, 3-((3S)-3-((2-cyclohexylphenoxy)methyl)pyrrolidin-1-yl)-3-oxopropanoic acid] | 100 |  |  | 62.83 ± 4.70 | 32.30 ± 1.76 | 
